Laboratory results: patent US20210261561A1, “BICYCLIC HETEROCYCLE DERIVATIVES HAVING SELECTIVE BACE1 INHIBITORY ACTIVITY” (SHIONOGI & CO., LTD., priority 2018, published 2021)
Each block holds one molecule with its values, some of them ahead of it.

Tests used:
BACE2 = target: T1, BACE2 (Homo sapiens, UniProt Q9Y5Z0); assay: BACE2 biochemical competitive radioligand binding assay (Test Example 1-1/1-2); set-up: expressed in transfected cells; host or cells: HEK 293 (membrane preparation); conditions: competition with tritiated non-selective BACE1/BACE2 inhibitor, BACE2-containing HEK 293 derived membrane, pH 6.2
T1 sequence (Q9Y5Z0 63-518): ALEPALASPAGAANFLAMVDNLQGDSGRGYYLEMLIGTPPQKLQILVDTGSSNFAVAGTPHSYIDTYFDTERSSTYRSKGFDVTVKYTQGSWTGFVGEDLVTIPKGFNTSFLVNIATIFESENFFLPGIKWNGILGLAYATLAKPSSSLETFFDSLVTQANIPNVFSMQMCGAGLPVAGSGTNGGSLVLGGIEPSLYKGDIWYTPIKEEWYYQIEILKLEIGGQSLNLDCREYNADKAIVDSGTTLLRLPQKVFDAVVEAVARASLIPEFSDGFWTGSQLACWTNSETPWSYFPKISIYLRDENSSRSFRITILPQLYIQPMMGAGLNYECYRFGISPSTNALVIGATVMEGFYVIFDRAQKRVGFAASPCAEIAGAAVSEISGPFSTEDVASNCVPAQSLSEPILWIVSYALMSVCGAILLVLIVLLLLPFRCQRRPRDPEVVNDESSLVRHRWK
Procedure: To explore the BACE1 versus BACE2 enzyme selectivity, the binding affinity (Ki) to the respective purified enzymes was determined in a competitive radioligand binding assay, i.e. in competition with a tritiated non-selective BACE1/BACE2 inhibitor.
Briefly in test tubes, compounds of interest were combined with the radioligand and the BACE1 or BACE2-containing HEK 293 derived membrane. The competitive binding reaction was performed at pH 6.2 and incubated at room temperature until the equilibrium was reached. Afterwards free radioligand was separated from bound radioligand by filtration with a Brandell 96 harvester. The filter was washed 4 times with washing buffer and the filter sheets were punched into scintillation vials. Ultima Gold scintillation cocktail was added and samples were shaken. The day after, the vials were counted in a Tricarb scintillation counter to obtain the disintegrations per minute (dpm) of the bound radioligand.
Calculating the % CTL=(sample/HC)*100, with HC being the high control, i.e. total binding of radioligand, allowed to fit curves through the data points of the different doses of test compound. The pIC50 or IC50 was calculated and could be converted to Ki by the formula Ki=IC50/(1+([RL]/Kd)), with [RL] being the used concentration of radioligand and Kd the determinated dissociation constant of the radioligand-membrane complex.
To explore the BACE1 versus BACE2 enzyme selectivity, the binding affinity (Ki) to the respective purified enzymes was determined in a competitive radioligand binding assay, i.e. in competition with a tritiated non-selective BACE1/BACE 2 inhibitor.
Briefly in test tubes, compounds of interest are combined with the radioligand and the BACE1 or BACE2-containing HEK 293 derived membrane. The competitive binding reaction is performed at pH 6.2 and incubated at room temperature until the equilibrium is reached. Afterwards free radioligand is separated from bound radioligand by filtration with a Brandell 96 harvester. The filter is washed 4 times with washing buffer and the filter sheets are punched into scintillation vials. Ultima Gold scintillation cocktail is added and samples are shaken. The day after, the vials are counted in a Tricarb scintillation counter to obtain the disintegrations per minute (dpm) of the bound radioligand.
Calculating the % Inhibition=100−[(sample−LC)/(HC−LC))*100], with HC being the high control, i.e. total binding of radioligand and LC representing the non-specific binding measured in the presence of 10 μM of 3-[(1S)-4-[isobutyl(2-morpholinoethyl)amino]-1-isopropyl-butyl]-6-phenoxy-4H-pyrido[3,4-d]pyrimidin-2-amine, a known BACE inhibitor, allows to fit curves through the data points of the different doses of test compound. The pIC50 or IC50 is calculated and can be converted to Ki by the formula Ki=IC50/(1+([RL]/Kd)), with [RL] being the used concentration of radioligand and Kd the determined dissociation constant of the radioligand-membrane complex.

[1] = system: Abeta 1-37, Abeta 1-38, Abeta 1-40 and Abeta 1-42 in cerebrospinal fluid (CSF); assay: Pharmacology in the beagle dog, beta-amyloid profile in CSF (Test Example 18-2); type: in vivo; conditions: for % Decrease in Abeta 1-42 at 24 h^(a) or 25 h^(b) post dosing compared to own baseline: 24 h or 25 h
Procedure: Test compounds were tested to evaluate the effect on the beta-amyloid profile in cerebrospinal fluid (CSF) of dogs after a single dose, in combination with pharmacokinetic (PK) follow up and limited safety evaluation.
For each of compound II-6 or II-10, four beagle dogs (2 males, 2 females) were dosed with vehicle (1 mL/kg of an aqueous solution of 20% cyclodextrin) and 12 beagle dogs (2 males and 2 females per dosage group) were dosed with test compounds as follows:
In the case of compounds II-2, II-3 and II-18, two beagle dogs (1 male, 1 female) were dosed with vehicle (1 mL/kg of an aqueous solution of 20% cyclodextrin) and 4 beagle dogs (2 males and 2 females) were dosed with test compound (II-2, II-3, or II-18) at the doses indicated in the following Table in an aqueous 20% cyclodextrin solution with a concentration in mg/mL identical to the dose given in mg/kg) on an empty stomach.
CSF was taken in conscious animals directly from the lateral ventricle via a cannula which was screwed in the skull and covered with subcutaneous tissue and skin, before and at 4, 8, 25 and 49 hours after dosing. Eight hours after dosing the animals got access to their regular meal for 30 minutes. Blood was taken for PK follow up (0.5, 1, 2, 4, 8, 25 and 49 hours) and serum samples for biochemistry were taken before and at 8 and 25 h after dosing. The CSF samples were used for measurement of Abeta 1-37, Abeta 1-38, Abeta 1-40 and Abeta 1-42.

Ki (BACE2): 0.011 µM
SMILES: C[C@@]1(c2cc(NC(=O)c3cc4c(cn3)OC(F)(F)O4)ccc2F)CC[C@@](C)(S(=O)(=O)C(F)(F)F)C(N)=N1 [II-29]

Ki (BACE2): 0.22 µM
SMILES: CC1(S(C)(=O)=O)CCC(CF)(c2cc(NC(=O)c3ncc4c(c3Cl)OCCO4)ccc2F)N=C1N (stereo not shown) [II-26]

Ki (BACE2): 0.091 µM
SMILES: CC(C)S(=O)(=O)C1(C)CCC(CF)(c2cc(NC(=O)c3cc4c(cn3)OC(F)(F)CO4)ccc2F)N=C1N (stereo not shown) [II-28]

Ki (BACE2): 0.068 µM
SMILES: CCS(=O)(=O)[C@]1(C)CC[C@@](CF)(c2cc(NC(=O)c3cc4c(cn3)OC(F)(F)O4)ccc2F)N=C1N [II-20]
% Decrease in Abeta 1-42 at 8 h post dosing compared to own baseline ([1]; single dose 0.16 mg/kg): 51%
% Decrease in Abeta 1-42 at 24 h^(a) or 25 h^(b) post dosing compared to own baseline ([1]; single dose 0.16 mg/kg): 30%
% Decrease in Abeta 1-42 at 49 h post dosing compared to own baseline ([1]; single dose 0.16 mg/kg): 25%
% Decrease in Abeta 1-42 at 8 h post dosing compared to own baseline ([1]; single dose 0.63 mg/kg): 72%
% Decrease in Abeta 1-42 at 24 h^(a) or 25 h^(b) post dosing compared to own baseline ([1]; single dose 0.63 mg/kg): 70%
% Decrease in Abeta 1-42 at 49 h post dosing compared to own baseline ([1]; single dose 0.63 mg/kg): 52%
% Decrease in Abeta 1-42 at 8 h post dosing compared to own baseline ([1]; single dose 1 mg/kg): 73%
% Decrease in Abeta 1-42 at 24 h^(a) or 25 h^(b) post dosing compared to own baseline ([1]; single dose 1 mg/kg): 76%
% Decrease in Abeta 1-42 at 49 h post dosing compared to own baseline ([1]; single dose 1 mg/kg): 58%
% Decrease in Abeta 1-42 at 8 h post dosing compared to own baseline ([1]; single dose 3.75 mg/kg): 86%
% Decrease in Abeta 1-42 at 24 h^(a) or 25 h^(b) post dosing compared to own baseline ([1]; single dose 3.75 mg/kg): 91%
% Decrease in Abeta 1-42 at 49 h post dosing compared to own baseline ([1]; single dose 3.75 mg/kg): 85%

Ki (BACE2): 0.434 µM
SMILES: [2H]C1([2H])Oc2cnc(C(=O)Nc3cc(F)c(F)c(C4(CF)CCC(C)(S(C)(=O)=O)C(N)=N4)c3)cc2OC1([2H])[2H] (stereo not shown) [II-16]

Ki (BACE2): 0.015 µM
SMILES: CCS(=O)(=O)C1(C)CCC(CF)(c2cc(NC(=O)c3cc4c(cn3)OC(F)(F)CO4)ccc2F)N=C1N (stereo not shown) [II-19]

Ki (BACE2): 0.053 µM
SMILES: CC1(S(C)(=O)=O)CCC(CF)(c2cc(NC(=O)c3ncc4c(c3Cl)OC(F)(F)O4)ccc2F)N=C1N (stereo not shown) [II-25]

Ki (BACE2): 0.018 µM
SMILES: CC1(S(=O)(=O)C2CC2)CCC(CF)(c2cc(NC(=O)c3cc4c(cn3)OC(F)(F)CO4)ccc2F)N=C1N (stereo not shown) [II-27]

Ki (BACE2): 0.104 µM
SMILES: CCS(=O)(=O)C1(C)CCC(CF)(c2cc(NC(=O)c3cc4c(cn3)OC(F)(F)O4)cc(F)c2F)N=C1N (stereo not shown) [II-23]

Ki (BACE2): 0.029 µM
SMILES: CC1(S(C)(=O)=O)CCC(CF)(c2cc(NC(=O)c3cc4c(cn3)OC(F)(F)CO4)cc(F)c2F)N=C1N (stereo not shown) [II-17]

Ki (BACE2): 0.104 µM
SMILES: CC1(S(C)(=O)=O)CCC(CF)(c2cc(NC(=O)c3ncc4c(n3)OCCO4)cc(F)c2F)N=C1N (stereo not shown) [II-22]

Continued, molecule first:

SMILES: CC1(S(C)(=O)=O)CCC(CF)(c2cc(NC(=O)c3cc4c(cn3)OCO4)ccc2F)N=C1N (stereo not shown) [II-4]
Ki (BACE2): 0.0114 µM

SMILES: CC1(S(C)(=O)=O)CCC(CF)(c2cc(NC(=O)c3cc4c(cn3)OCCCO4)ccc2F)N=C1N (stereo not shown) [II-5]
Ki (BACE2): 0.454 µM

SMILES: CC1(S(C)(=O)=O)CCC(CF)(c2cc(NC(=O)c3ncc4c(c3F)OC(F)(F)O4)ccc2F)N=C1N (stereo not shown) [II-13]
Ki (BACE2): 0.056 µM

SMILES: C[C@@]1(S(C)(=O)=O)CC[C@@](CF)(c2cc(NC(=O)c3cc4c(cn3)OC(F)(F)O4)ccc2F)N=C1N [II-6]
Ki (BACE2): 0.103 µM
% Decrease in Abeta 1-42 at 8 h post dosing compared to own baseline ([1]; single dose 0.16 mg/kg): 51%
% Decrease in Abeta 1-42 at 24 h^(a) or 25 h^(b) post dosing compared to own baseline ([1]; single dose 0.16 mg/kg): 31%
% Decrease in Abeta 1-42 at 8 h post dosing compared to own baseline ([1]; single dose 0.31 mg/kg): 69%
% Decrease in Abeta 1-42 at 49 h post dosing compared to own baseline ([1]; single dose 0.31 mg/kg): 22%
% Decrease in Abeta 1-42 at 8 h post dosing compared to own baseline ([1]; single dose 0.63 mg/kg): 68%
% Decrease in Abeta 1-42 at 24 h^(a) or 25 h^(b) post dosing compared to own baseline ([1]; single dose 0.63 mg/kg): 62%

SMILES: [2H]C1([2H])Oc2cnc(C(=O)Nc3ccc(F)c([C@]4(CF)CC[C@@](C)(S(C)(=O)=O)C(N)=N4)c3)cc2OC1([2H])[2H] [II-2]
Ki (BACE2): 0.095 µM
% Decrease in Abeta 1-42 at 8 h post dosing compared to own baseline ([1]; single dose 0.63 mg/kg): 33%

SMILES: CC1(S(C)(=O)=O)CCC(CF)(c2cc(NC(=O)c3cc4c(cn3)OCCO4)ccc2F)N=C1N (stereo not shown) [II-1]
Ki (BACE2): 0.104 µM

SMILES: [2H]C1([2H])Oc2cnc(C(=O)Nc3ccc(F)c([C@]4(CF)CC[C@@](C)(S(C)(=O)=O)C(N)=N4)c3)cc2OC1([2H])[2H] [II-3]
Ki (BACE2): 0.128 µM
% Decrease in Abeta 1-42 at 8 h post dosing compared to own baseline ([1]; single dose 5 mg/kg): 61%

SMILES: C[C@@]1(S(C)(=O)=O)CC[C@@](CF)(c2cc(NC(=O)c3cc4c(cn3)OC(F)(F)O4)ccc2F)N=C1N [II-7]
Ki (BACE2): 0.079 µM

SMILES: CC1(S(C)(=O)=O)CCC(CF)(c2cc(NC(=O)c3ncc4c(c3F)OCCO4)ccc2F)N=C1N (stereo not shown) [II-8]
Ki (BACE2): 0.152 µM

SMILES: CC1(S(C)(=O)=O)CCC(CF)(c2cc(NC(=O)c3ncc4c(c3F)OCC(F)(F)O4)ccc2F)N=C1N (stereo not shown) [II-14]
Ki (BACE2): 0.023 µM

SMILES: C[C@@]1(S(C)(=O)=O)CC[C@@](CF)(c2cc(NC(=O)c3cc4c(cn3)OC(F)(F)CO4)ccc2F)N=C1N [II-10]
Ki (BACE2): 0.02 µM
% Decrease in Abeta 1-42 at 8 h post dosing compared to own baseline ([1]; single dose 0.16 mg/kg): 37%
% Decrease in Abeta 1-42 at 8 h post dosing compared to own baseline ([1]; single dose 0.63 mg/kg): 68%
% Decrease in Abeta 1-42 at 24 h^(a) or 25 h^(b) post dosing compared to own baseline ([1]; single dose 0.63 mg/kg): 21%
% Decrease in Abeta 1-42 at 8 h post dosing compared to own baseline ([1]; single dose 1.25 mg/kg): 73%
% Decrease in Abeta 1-42 at 24 h^(a) or 25 h^(b) post dosing compared to own baseline ([1]; single dose 1.25 mg/kg): 27%
% Decrease in Abeta 1-42 at 8 h post dosing compared to own baseline ([1]; single dose 2.5 mg/kg): 76%
% Decrease in Abeta 1-42 at 24 h^(a) or 25 h^(b) post dosing compared to own baseline ([1]; single dose 2.5 mg/kg): 28%
